The source made the active and inactive calls. The rule behind the calls is not given here.
Columns and labels:
[1] = target: Protein arginine N-methyltransferase 1 (Homo sapiens, UniProt Q99873); experiment: Inhibition of human PRMT1 using H4-21peptide as substrate at 10 uM incubated for 10 mins by fluorescence based analysis relative to control
[2] = target: Protein arginine N-methyltransferase 3 (Homo sapiens, UniProt O60678); experiment: Inhibition of human PRMT3 using H4-21peptide as substrate at 10 uM incubated for 10 mins by fluorescence based analysis relative to control
[3] = target: Protein arginine N-methyltransferase 6 (Homo sapiens, UniProt Q96LA8); experiment: Inhibition of human PRMT6 using GST-GAR as substrate and SAM as cofactor at 10 uM by radiometric HotSpot assay relative to control
[4] = target: Protein arginine N-methyltransferase 8 (Homo sapiens, UniProt Q9NR22); experiment: Inhibition of human PRMT8 using Histone H4 as substrate and SAM as cofactor at 10 uM by radiometric HotSpot assay relative to control
[5] = target: T1, Histone-arginine methyltransferase CARM1 (Homo sapiens) (UniProt Q86X55); experiment: Inhibition of human PRMT4 using histone H3 as substrate and SAM as cofactor at 10 uM by radiometric HotSpot assay relative to control
T1 sequence (whole entry): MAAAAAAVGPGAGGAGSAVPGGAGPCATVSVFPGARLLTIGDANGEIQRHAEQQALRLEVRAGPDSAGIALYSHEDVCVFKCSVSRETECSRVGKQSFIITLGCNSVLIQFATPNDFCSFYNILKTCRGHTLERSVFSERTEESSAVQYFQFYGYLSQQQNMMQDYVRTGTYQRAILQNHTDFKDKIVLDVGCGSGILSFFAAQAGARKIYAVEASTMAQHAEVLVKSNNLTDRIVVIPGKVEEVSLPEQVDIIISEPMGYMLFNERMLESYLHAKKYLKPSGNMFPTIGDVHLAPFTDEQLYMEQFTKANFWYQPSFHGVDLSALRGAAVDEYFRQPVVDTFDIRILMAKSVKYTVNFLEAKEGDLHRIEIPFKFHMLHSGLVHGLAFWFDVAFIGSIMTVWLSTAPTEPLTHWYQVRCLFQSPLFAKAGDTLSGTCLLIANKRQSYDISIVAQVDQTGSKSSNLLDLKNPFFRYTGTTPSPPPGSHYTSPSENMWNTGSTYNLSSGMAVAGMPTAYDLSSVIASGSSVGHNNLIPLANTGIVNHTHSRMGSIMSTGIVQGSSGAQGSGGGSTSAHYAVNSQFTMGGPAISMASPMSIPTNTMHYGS

Protein arginine N-methyltransferase 6, sequence (Q96LA8 whole entry, looked up): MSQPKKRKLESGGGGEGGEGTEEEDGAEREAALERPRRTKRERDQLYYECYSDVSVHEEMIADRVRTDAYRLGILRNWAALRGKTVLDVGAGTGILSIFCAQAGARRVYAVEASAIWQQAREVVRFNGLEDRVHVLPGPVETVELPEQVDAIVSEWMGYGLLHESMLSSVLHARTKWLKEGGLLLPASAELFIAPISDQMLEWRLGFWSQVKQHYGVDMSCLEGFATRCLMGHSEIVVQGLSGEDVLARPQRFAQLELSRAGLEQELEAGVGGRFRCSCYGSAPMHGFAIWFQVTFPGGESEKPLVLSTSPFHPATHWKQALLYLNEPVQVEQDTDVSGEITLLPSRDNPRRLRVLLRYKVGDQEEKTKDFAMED
Protein arginine N-methyltransferase 3, sequence (O60678 2-531 limits assumed): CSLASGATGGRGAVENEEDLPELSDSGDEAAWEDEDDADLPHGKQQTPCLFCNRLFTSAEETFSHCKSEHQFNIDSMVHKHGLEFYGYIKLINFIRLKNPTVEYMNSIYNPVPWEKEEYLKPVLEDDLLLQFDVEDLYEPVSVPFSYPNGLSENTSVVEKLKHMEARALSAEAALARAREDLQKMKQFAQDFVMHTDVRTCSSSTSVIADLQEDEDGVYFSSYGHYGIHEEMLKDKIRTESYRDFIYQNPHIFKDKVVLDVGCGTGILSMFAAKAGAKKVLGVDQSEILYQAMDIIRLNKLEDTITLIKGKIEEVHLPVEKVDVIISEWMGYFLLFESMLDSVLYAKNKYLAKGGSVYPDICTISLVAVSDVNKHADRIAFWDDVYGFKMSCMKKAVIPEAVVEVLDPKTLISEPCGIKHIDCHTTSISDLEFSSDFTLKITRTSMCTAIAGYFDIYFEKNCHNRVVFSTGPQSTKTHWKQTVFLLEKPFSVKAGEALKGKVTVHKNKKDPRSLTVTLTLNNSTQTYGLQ
Protein arginine N-methyltransferase 8, sequence (Q9NR22 2-394 limits assumed): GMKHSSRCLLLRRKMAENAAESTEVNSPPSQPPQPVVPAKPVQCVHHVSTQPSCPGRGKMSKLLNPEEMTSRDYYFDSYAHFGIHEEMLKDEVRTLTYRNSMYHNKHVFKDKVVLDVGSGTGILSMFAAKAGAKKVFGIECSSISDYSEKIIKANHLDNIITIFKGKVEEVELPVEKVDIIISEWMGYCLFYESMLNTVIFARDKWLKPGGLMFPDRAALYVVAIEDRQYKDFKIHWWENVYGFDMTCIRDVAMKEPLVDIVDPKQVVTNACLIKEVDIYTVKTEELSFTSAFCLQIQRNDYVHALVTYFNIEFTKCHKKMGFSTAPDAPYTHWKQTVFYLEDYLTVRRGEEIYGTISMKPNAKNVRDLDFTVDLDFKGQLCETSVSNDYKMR
Protein arginine N-methyltransferase 1, sequence (Q99873 whole entry, looked up): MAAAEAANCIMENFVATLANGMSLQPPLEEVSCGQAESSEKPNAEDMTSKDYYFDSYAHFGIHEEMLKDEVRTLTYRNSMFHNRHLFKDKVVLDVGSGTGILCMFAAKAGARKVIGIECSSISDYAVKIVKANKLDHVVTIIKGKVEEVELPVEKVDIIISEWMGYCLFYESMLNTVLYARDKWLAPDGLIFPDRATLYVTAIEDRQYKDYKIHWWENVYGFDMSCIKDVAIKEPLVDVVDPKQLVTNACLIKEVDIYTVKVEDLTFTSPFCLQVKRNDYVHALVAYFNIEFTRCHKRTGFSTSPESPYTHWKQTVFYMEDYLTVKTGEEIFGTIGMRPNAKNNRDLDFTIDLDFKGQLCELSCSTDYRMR

inhibition [1]	inhibition [2] [%]	inhibition [3]	inhibition [4] [%]	inhibition [5]	SMILES
inactive	< 30	< 50%	< 50	–	Nc1ncnc2c1ncn2[C@@H]1O[C@H](CSCCOc2ccc(-c3ccc(O)cc3)cc2)[C@@H](O)[C@H]1O
inactive	< 30	< 50%	< 50	–	Nc1ncnc2c1ncn2[C@@H]1O[C@H](CSCCOc2ccc(-c3ccncc3)cc2)[C@@H](O)[C@H]1O
Active	< 30	Active	70	Active	N=C(NCCCSC[C@H]1O[C@@H](n2cnc3c(NCCCc4ccccc4)ncnc32)[C@H](O)[C@@H]1O)NCC1CCC1
< 50%	3	70%	< 30	27%	Nc1ncnc2c1ncn2[C@@H]1O[C@H](CSCCNC(=O)NCc2ccc(-c3ccc(O)cc3)cc2)[C@@H](O)[C@H]1O
–	< 30	50%	> 50	> 90%	Nc1ncnc2c1ncn2[C@@H]1O[C@H](CSCCNCc2cccc(-c3ccc(Cl)cc3)c2)[C@@H](O)[C@H]1O
–	< 30	50%	> 50	> 90%	Nc1ncnc2c1ncn2[C@@H]1O[C@H](CSCCNCc2cccc(-c3cccc4cn[nH]c34)c2)[C@@H](O)[C@H]1O
inactive	< 30	< 50%	< 50	–	Nc1ncnc2c1ncn2[C@@H]1O[C@H](CSCCOc2ccc(-c3ccc(F)c(O)c3)cc2)[C@@H](O)[C@H]1O
–	< 30	50%	> 50	> 90%	Nc1ncnc2c1ncn2[C@@H]1O[C@H](CSCCNCc2cccc(-c3ccc(F)c(O)c3)c2)[C@@H](O)[C@H]1O
inactive	< 30	< 50%	< 50	–	Nc1ncnc2c1ncn2[C@@H]1O[C@H](CSCCOc2ccc(-c3ccc(F)cc3)cc2)[C@@H](O)[C@H]1O
–	< 30	50%	> 50	> 90%	Nc1ncnc2c1ncn2[C@@H]1O[C@H](CSCCCNCc2cccc(-c3ccc(F)c(O)c3)c2)[C@@H](O)[C@H]1O
inactive	< 30	< 50%	< 50	–	Nc1ncnc2c1ncn2[C@@H]1O[C@H](CSCCOc2ccc(-c3ccccc3O)cc2)[C@@H](O)[C@H]1O
–	< 30	50%	> 50	> 90%	Nc1ncnc2c1ncn2[C@@H]1O[C@H](CSCCNCc2cccc(-c3cccc(F)c3)c2)[C@@H](O)[C@H]1O
inactive	< 30	< 50%	< 50	–	Nc1ncnc2c1ncn2[C@@H]1O[C@H](CSCCOc2ccc(-c3cncnc3)cc2)[C@@H](O)[C@H]1O
inactive	< 30	< 50%	< 50	–	Nc1ncnc2c1ncn2[C@@H]1O[C@H](CSCCOc2ccc(-c3ccc(Cl)cc3)cc2)[C@@H](O)[C@H]1O
–	< 30	50%	> 50	> 90%	Nc1ncnc2c1ncn2[C@@H]1O[C@H](CSCCCNCc2cccc(-c3ccoc3)c2)[C@@H](O)[C@H]1O
–	< 30	50%	> 50	> 90%	Nc1ncnc2c1ncn2[C@@H]1O[C@H](CSCCNCc2cccc(-c3ccncc3)c2)[C@@H](O)[C@H]1O
> 50%	–	> 90%	> 95	> 90%	N=C(NCCCSC[C@H]1O[C@@H](n2cnc3c(N)ncnc32)[C@H](O)[C@@H]1O)Nc1cccc(-c2ccc(O)cc2)c1
–	< 30	50%	> 50	> 90%	Nc1ncnc2c1ncn2[C@@H]1O[C@H](CSCCCNCc2cccc(-c3ccc(C(F)(F)F)cc3)c2)[C@@H](O)[C@H]1O
> 50%	–	> 90%	> 95	> 90%	N=C(NCCCSC[C@H]1O[C@@H](n2cnc3c(N)ncnc32)[C@H](O)[C@@H]1O)Nc1cccc(-c2ccc(F)c(O)c2)c1

inhibition [1]	inhibition [2] [%]	inhibition [3]	inhibition [4] [%]	inhibition [5]	SMILES
–	< 30	50%	> 50	> 90%	Nc1ncnc2c1ncn2[C@@H]1O[C@H](CSCCCNCc2cccc(-c3ccc(O)cc3)c2)[C@@H](O)[C@H]1O
–	< 30	50%	> 50	> 90%	Nc1ncnc2c1ncn2[C@@H]1O[C@H](CSCCNCc2cccc(-c3ccc(C(F)(F)F)cc3)c2)[C@@H](O)[C@H]1O
–	< 30	50%	> 50	> 90%	Nc1ncnc2c1ncn2[C@@H]1O[C@H](CSCCNCc2cccc(-c3ccccc3O)c2)[C@@H](O)[C@H]1O
> 50%	–	> 90%	> 95	> 90%	N=C(NCCCSC[C@H]1O[C@@H](n2cnc3c(N)ncnc32)[C@H](O)[C@@H]1O)Nc1cccc(-c2ccc(C(F)(F)F)cc2)c1
–	< 30	50%	> 50	> 90%	Nc1ncnc2c1ncn2[C@@H]1O[C@H](CSCCCNCc2cccc(-c3cccc(F)c3)c2)[C@@H](O)[C@H]1O
–	< 30	50%	> 50	> 90%	Nc1cccc(-c2cccc(CNCCSC[C@H]3O[C@@H](n4cnc5c(N)ncnc54)[C@H](O)[C@@H]3O)c2)c1
–	< 30	50%	> 50	> 90%	Nc1ncnc2c1ncn2[C@@H]1O[C@H](CSCCCNCc2cccc(-c3ccc(Cl)cc3)c2)[C@@H](O)[C@H]1O
> 50%	–	> 90%	> 95	> 90%	N=C(NCCCSC[C@H]1O[C@@H](n2cnc3c(N)ncnc32)[C@H](O)[C@@H]1O)Nc1cccc(-c2cccc([N+](=O)[O-])c2)c1
inactive	< 30	< 50%	< 50	–	Nc1ncnc2c1ncn2[C@@H]1O[C@H](CSCCOc2ccc(-c3cccc(O)c3)cc2)[C@@H](O)[C@H]1O
> 50%	–	> 90%	> 95	> 90%	N=C(NCCSC[C@H]1O[C@@H](n2cnc3c(N)ncnc32)[C@H](O)[C@@H]1O)Nc1cccc(-c2ccoc2)c1
–	< 30	50%	> 50	> 90%	Nc1ncnc2c1ncn2[C@@H]1O[C@H](CSCCNCc2cccc(-c3ccc(O)cc3)c2)[C@@H](O)[C@H]1O
–	< 30	50%	> 50	> 90%	Nc1ncnc2c1ncn2[C@@H]1O[C@H](CSCCCNCc2cccc(-c3cccc4cn[nH]c34)c2)[C@@H](O)[C@H]1O
inactive	< 30	> 70%	< 50	–	COc1cc2nc(-c3ccc(O)cc3)nc(NCCSC[C@H]3O[C@@H](n4cnc5c(N)ncnc54)[C@H](O)[C@@H]3O)c2cc1OC
–	< 30	50%	> 50	> 90%	Nc1ncnc2c1ncn2[C@@H]1O[C@H](CSCCNCc2cccc(-c3cccc(O)c3)c2)[C@@H](O)[C@H]1O
> 50%	–	> 90%	> 95	> 90%	N=C(NCCCSC[C@H]1O[C@@H](n2cnc3c(N)ncnc32)[C@H](O)[C@@H]1O)Nc1ccccc1
> 50%	–	> 90%	> 95	> 90%	N=C(NCCSC[C@H]1O[C@@H](n2cnc3c(N)ncnc32)[C@H](O)[C@@H]1O)Nc1cccc(I)c1
> 50%	–	> 90%	> 95	> 90%	N=C(NCCCSC[C@H]1O[C@@H](n2cnc3c(N)ncnc32)[C@H](O)[C@@H]1O)Nc1cccc(-c2n[nH]cc2C(F)(F)F)c1
inactive	< 30	> 70%	< 50	–	COc1cc2nc(-c3ccc(Cl)cc3)nc(NCCSC[C@H]3O[C@@H](n4cnc5c(N)ncnc54)[C@H](O)[C@@H]3O)c2cc1OC
> 50%	–	> 90%	> 95	> 90%	N=C(NCCSC[C@H]1O[C@@H](n2cnc3c(N)ncnc32)[C@H](O)[C@@H]1O)Nc1cccc(-c2ccc(C(F)(F)F)cc2)c1

Source: ChEMBL document CHEMBL5608259 (J Med Chem, 2024)
